{"source": "ChEMBL document CHEMBL5260838", "about": "(J Med Chem, 2019)", "key": {"[1]": {"assay": "Clearance in Beagle dog at 0.5 mg/kg, iv", "format": "ADME, organism-based, Canis lupus familiaris", "conditions": "in vivo"}, "[2]": {"system": "Mus musculus", "assay": "Analgesic activity against formalin-induced pain in FVB mouse model assessed as reduction in formalin-induced pain at 10 mg/kg, po administered for 120 mins prior to formalin challenge and measured after 11 to 40 mins", "format": "functional, organism-based", "conditions": "time 131-160 min"}, "[3]": {"assay": "Protein binding in rat plasma", "format": "ADME, cell-free", "conditions": "read-out: PPB (converted)"}, "[4]": {"target": "Sodium channel protein type 9 subunit alpha (Mus musculus, UniProt Q62205)", "assay": "Inhibition of mouse Nav1.7 at -60 mV holding potential by PatchXpress automated voltage clamp electrophysiology technique"}, "[5]": {"target": "T1, Peroxisome proliferator-activated receptor gamma (Homo sapiens) (UniProt P37231)", "T1 sequence (whole entry)": "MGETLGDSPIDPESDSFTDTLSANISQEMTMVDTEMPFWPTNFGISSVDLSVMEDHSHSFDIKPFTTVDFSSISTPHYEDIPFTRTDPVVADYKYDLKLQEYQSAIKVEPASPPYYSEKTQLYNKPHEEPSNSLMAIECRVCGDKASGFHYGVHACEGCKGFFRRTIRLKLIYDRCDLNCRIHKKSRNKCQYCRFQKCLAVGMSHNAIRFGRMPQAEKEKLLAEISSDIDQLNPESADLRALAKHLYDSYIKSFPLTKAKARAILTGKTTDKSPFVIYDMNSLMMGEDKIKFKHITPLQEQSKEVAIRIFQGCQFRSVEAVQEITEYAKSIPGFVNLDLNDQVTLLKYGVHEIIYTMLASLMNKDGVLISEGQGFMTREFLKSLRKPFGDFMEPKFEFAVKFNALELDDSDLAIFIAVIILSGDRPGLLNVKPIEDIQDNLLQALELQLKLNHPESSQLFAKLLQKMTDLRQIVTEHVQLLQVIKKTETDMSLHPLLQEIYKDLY", "assay": "Inhibition of PPARgamma (unknown origin) at 10 uM relative to control"}, "[6]": {"target": "Sodium channel protein type 8 subunit alpha (Homo sapiens, UniProt Q9UQD0)", "assay": "Inhibition of human Nav1.6 alpha subunit expressed in HEK293 cells co-expressing beta1 subunit at -35 mV holding potential by PatchXpress automated voltage clamp electrophysiology technique", "format": "cell-based"}, "[7]": {"assay": "Oral bioavailability in Beagle dog at 1 mg/kg", "format": "ADME, organism-based, Canis lupus familiaris", "conditions": "in vivo"}, "[8]": {"assay": "Drug concentration in plasma of FVB mouse model of aconitine-induced pain expressing human Nav1.7 I848T mutant at 10 mg/kg, po administered 120 mins prior to aconitine administered and measured after 70 mins by UPLC-ESI MS/MS analysis", "format": "ADME, organism-based", "conditions": "time 190 min"}, "[9]": {"assay": "Unbound plasma concentration in FVB mouse model of aconitine-induced pain expressing human Nav1.7 I848T mutant at 0.3 mg/kg, po administered 120 mins prior to aconitine administration and measured after 70 mins by UPLC-ESI MS/MS analysis", "format": "ADME, organism-based", "conditions": "in vivo, 3.167 h, time 190 min"}, "[10]": {"target": "T2, Cytochrome P450 1A2 (Homo sapiens, UniProt P05177)", "T2 sequence (P05177 whole entry)": "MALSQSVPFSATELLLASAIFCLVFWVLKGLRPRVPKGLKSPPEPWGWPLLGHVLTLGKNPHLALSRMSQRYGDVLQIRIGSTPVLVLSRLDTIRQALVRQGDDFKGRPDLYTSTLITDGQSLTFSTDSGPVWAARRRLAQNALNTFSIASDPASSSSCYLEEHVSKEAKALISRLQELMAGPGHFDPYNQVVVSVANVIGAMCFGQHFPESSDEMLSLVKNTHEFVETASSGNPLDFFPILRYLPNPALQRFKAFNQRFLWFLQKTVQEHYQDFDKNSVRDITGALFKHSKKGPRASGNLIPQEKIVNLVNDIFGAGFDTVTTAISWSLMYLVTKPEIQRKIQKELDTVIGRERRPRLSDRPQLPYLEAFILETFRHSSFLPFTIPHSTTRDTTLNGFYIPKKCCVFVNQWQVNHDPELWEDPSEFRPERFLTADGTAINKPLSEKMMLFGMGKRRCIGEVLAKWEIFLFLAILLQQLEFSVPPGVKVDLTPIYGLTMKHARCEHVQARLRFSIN", "assay": "Inhibition of CYP1A2 (unknown origin)", "format": "ADME"}, "[11]": {"target": "Cytochrome P450 3A4 (Homo sapiens, UniProt P08684)", "sequence (P08684 whole entry)": "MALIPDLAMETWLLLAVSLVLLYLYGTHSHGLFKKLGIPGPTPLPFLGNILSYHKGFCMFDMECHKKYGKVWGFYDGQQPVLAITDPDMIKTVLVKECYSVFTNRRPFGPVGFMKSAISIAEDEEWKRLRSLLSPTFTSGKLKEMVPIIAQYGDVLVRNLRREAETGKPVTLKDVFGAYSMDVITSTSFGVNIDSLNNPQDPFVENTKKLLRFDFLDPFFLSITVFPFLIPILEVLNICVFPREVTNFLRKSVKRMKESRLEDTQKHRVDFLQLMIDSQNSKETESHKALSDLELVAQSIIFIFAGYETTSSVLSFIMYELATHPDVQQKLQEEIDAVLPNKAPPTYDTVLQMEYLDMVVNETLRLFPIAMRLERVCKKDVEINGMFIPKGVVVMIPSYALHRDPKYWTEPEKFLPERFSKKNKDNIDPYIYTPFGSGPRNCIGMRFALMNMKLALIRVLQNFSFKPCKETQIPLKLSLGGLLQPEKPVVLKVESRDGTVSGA", "assay": "Inhibition of CYP3A4 (unknown origin)", "format": "ADME"}, "[12]": {"assay": "Cmax in Sprague-Dawley rat at 5 mg/kg, po", "format": "ADME, organism-based", "parameters": "dose 5 mg/kg, route po", "conditions": "in vivo"}, "[13]": {"assay": "Half-life in FVB mouse at 30 mg/kg, po", "format": "ADME, organism-based", "conditions": "in vivo"}, "[14]": {"assay": "Drug concentration in plasma of FVB mouse model of aconitine-induced pain expressing human Nav1.7 I848T mutant at 3 mg/kg, po administered 120 mins prior to aconitine administered and measured after 70 mins by UPLC-ESI MS/MS analysis", "format": "ADME, organism-based", "conditions": "time 190 min"}, "[15]": {"assay": "Protein binding in mouse plasma", "format": "ADME, cell-free", "conditions": "read-out: PPB (converted)"}, "[16]": {"assay": "Cmax in FVB mouse at 30 mg/kg, po", "format": "ADME, organism-based", "parameters": "dose 30 mg/kg, route po", "conditions": "in vivo"}, "[17]": {"assay": "Oral bioavailability in Sprague-Dawley rat at 5 mg/kg", "format": "ADME, organism-based", "conditions": "in vivo"}, "[18]": {"target": "Cytochrome P450 2C9 (Homo sapiens, UniProt P11712)", "sequence (P11712 whole entry)": "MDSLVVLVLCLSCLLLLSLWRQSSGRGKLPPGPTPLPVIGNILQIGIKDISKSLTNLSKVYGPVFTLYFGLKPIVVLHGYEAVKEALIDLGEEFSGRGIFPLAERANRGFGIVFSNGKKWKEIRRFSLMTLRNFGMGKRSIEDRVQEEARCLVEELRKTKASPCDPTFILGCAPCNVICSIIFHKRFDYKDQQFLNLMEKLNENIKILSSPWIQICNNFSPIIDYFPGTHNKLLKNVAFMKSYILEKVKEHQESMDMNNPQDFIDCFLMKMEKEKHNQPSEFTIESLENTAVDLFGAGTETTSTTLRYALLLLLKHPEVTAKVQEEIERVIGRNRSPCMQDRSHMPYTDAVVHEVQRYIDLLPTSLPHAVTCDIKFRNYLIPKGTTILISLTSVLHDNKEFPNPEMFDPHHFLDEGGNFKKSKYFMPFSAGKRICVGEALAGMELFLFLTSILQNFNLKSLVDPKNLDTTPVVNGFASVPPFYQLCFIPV", "assay": "Inhibition of CYP2C9 (unknown origin)", "format": "ADME"}, "[19]": {"assay": "AUC in FVB mouse at 30 mg/kg, po", "format": "ADME, organism-based", "parameters": "dose 30 mg/kg, route po", "conditions": "in vivo"}, "[20]": {"target": "Sodium channel protein type 10 subunit alpha (Mus musculus, UniProt Q6QIY3)", "sequence (Q6QIY3 whole entry)": "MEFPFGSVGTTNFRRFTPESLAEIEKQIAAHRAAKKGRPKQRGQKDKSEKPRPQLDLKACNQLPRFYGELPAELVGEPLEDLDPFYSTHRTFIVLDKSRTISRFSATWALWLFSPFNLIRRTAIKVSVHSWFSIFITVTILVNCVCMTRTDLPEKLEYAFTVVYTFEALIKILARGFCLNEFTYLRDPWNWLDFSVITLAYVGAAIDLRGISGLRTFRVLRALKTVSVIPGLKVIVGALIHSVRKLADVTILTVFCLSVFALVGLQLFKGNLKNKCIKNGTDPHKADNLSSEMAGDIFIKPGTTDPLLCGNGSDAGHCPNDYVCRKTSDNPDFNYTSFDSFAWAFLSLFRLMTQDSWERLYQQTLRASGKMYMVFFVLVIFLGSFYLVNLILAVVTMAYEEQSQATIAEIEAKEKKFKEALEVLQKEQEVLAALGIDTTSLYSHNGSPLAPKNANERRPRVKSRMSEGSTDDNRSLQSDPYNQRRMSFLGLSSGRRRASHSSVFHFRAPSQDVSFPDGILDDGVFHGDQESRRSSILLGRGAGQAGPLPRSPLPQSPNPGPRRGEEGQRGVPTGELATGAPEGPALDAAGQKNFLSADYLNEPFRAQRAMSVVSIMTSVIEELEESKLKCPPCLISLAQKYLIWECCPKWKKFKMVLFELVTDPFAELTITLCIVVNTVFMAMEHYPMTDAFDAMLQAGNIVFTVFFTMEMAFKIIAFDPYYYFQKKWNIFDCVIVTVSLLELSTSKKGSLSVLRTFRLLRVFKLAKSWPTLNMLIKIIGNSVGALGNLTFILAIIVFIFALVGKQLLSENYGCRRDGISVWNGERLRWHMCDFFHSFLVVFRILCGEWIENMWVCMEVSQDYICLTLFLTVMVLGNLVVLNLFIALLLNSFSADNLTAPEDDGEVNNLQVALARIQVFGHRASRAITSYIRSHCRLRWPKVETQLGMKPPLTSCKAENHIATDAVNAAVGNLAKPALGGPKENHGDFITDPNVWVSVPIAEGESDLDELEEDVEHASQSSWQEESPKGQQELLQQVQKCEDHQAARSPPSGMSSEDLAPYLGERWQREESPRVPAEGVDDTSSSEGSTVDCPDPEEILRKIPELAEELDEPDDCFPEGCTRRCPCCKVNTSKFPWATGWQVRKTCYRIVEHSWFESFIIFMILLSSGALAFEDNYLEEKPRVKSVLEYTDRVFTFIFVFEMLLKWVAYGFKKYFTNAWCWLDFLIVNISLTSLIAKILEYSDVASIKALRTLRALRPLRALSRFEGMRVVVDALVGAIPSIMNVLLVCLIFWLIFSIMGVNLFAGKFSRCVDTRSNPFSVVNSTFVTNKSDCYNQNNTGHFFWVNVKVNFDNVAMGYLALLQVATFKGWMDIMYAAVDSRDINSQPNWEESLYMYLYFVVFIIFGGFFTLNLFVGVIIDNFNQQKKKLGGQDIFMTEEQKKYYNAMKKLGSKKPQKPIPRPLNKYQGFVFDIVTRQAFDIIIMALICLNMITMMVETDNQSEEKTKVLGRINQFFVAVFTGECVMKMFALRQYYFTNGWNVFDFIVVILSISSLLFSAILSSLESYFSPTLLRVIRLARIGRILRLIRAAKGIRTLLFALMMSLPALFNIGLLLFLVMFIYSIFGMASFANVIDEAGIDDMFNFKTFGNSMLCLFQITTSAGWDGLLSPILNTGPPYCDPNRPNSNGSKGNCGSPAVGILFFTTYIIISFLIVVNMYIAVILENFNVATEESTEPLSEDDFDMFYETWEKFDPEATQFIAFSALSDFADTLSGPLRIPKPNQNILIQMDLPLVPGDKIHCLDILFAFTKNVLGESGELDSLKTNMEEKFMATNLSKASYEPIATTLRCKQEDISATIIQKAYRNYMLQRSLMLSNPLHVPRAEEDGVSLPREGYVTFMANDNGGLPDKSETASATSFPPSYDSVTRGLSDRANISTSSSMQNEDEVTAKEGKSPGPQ", "assay": "Inhibition of TTX-resistant Nav1.8 in mouse dorsal root ganglion neuron by voltage clamp recording", "format": "tissue-based, DRG neuron"}, "[21]": {"target": "T3, Sodium channel protein type 9 subunit alpha (Homo sapiens, UniProt Q15858)", "T3 sequence (Q15858 whole entry)": "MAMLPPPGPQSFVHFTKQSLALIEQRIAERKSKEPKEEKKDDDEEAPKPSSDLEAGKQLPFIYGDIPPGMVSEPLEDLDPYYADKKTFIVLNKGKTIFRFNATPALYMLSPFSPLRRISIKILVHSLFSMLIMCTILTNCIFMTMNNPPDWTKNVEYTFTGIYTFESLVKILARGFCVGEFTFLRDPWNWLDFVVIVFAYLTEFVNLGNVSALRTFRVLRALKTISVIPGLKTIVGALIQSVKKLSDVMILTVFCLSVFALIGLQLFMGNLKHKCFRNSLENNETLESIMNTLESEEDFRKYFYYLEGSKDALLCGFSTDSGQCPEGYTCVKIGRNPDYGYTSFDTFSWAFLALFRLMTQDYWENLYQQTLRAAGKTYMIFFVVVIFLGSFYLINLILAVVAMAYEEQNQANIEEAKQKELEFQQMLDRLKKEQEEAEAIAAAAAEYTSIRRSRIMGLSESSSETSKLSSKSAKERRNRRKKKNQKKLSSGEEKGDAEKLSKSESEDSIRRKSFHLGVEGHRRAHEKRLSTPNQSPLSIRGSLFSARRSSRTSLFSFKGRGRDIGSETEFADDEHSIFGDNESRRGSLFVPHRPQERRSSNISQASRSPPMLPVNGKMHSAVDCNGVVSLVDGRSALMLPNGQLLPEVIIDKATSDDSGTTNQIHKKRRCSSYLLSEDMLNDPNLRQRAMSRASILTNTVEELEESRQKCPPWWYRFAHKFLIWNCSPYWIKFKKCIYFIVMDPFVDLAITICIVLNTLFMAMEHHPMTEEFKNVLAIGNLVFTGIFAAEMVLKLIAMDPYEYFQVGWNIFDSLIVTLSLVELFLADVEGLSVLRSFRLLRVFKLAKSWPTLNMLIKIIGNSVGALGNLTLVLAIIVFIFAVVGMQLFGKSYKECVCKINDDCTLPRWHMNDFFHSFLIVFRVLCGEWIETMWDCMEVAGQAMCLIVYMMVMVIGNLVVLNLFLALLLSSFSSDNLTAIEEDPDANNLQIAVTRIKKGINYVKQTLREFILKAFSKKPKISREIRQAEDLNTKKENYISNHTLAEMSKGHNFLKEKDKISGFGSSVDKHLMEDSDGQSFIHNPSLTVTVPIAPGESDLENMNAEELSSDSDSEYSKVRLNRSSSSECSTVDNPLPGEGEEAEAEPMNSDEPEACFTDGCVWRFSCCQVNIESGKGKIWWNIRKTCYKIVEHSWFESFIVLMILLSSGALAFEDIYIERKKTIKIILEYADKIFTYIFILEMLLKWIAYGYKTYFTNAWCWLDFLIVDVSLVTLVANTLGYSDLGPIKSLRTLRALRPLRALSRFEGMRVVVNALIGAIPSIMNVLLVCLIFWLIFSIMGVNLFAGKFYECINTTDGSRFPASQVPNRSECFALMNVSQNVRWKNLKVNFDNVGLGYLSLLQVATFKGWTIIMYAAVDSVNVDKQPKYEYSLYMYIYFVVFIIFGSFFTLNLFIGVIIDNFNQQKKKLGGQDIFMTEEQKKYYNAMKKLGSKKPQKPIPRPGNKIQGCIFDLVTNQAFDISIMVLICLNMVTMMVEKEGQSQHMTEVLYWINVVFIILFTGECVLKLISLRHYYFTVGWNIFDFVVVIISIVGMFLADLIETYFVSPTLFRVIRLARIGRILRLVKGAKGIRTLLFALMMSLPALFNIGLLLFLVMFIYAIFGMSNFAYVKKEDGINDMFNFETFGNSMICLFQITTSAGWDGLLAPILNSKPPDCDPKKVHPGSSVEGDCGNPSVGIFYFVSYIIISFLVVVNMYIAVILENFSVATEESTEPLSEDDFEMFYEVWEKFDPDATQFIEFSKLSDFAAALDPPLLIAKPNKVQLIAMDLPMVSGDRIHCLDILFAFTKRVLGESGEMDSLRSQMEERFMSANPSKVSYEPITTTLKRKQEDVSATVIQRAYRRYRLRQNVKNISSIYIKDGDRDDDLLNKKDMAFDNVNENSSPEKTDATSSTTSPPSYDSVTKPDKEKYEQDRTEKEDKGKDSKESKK", "assay": "Inhibition of human Nav1.7 alpha subunit expressed in HEK293 cells co-expressing beta1 subunit at -60 mV holding potential by whole-cell patch voltage clamp electrophysiology recording", "format": "cell-based"}, "[22]": {"target": "T3, Sodium channel protein type 9 subunit alpha", "assay": "Displacement of [3H]GX-545 from human Nav1.7 alpha subunit expressed in HEK293 cells co-expressing beta1 subunit by liquid scintillation counting analysis", "format": "cell-based"}, "[23]": {"assay": "Brain to plasma ratio in FVB mouse model of aconitine-induced pain expressing human Nav1.7 I848T mutant administered orally 120 mins prior to aconitine administered and measured after 70 mins by UPLC-ESI MS/MS analysis", "format": "ADME", "conditions": "route po, time 190 min, read-out: BPR"}, "[24]": {"organism": "Homo sapiens", "assay": "Inhibition of voltage-gated sodium channel (unknown origin) at 10 uM relative to control"}, "[25]": {"system": "mouse breast cancer resistant protein (Bcrp)", "assay": "Apparent permeability from apical to basolateral side in MDCK-II cells expressing mouse breast cancer resistant protein", "format": "ADME, cell-based, Canis lupus familiaris", "conditions": "dog"}, "[26]": {"target": "Sodium channel protein type 10 subunit alpha (Mus musculus) (UniProt Q6QIY3)", "sequence (Q6QIY3 whole entry)": "as the sequence (Q6QIY3 whole entry) above", "assay": "Inhibition of TTX-resistant Nav1.8 in mouse dorsal root ganglion neuron at 10 uM by voltage clamp recording relative to control", "format": "tissue-based", "conditions": "DRG neuron"}, "[27]": {"assay": "Half-life in Beagle dog at 0.5 mg/kg, iv", "format": "ADME, organism-based, Canis lupus familiaris", "conditions": "in vivo"}, "[28]": {"target": "Sodium channel protein type 1 subunit alpha (Homo sapiens, UniProt P35498)", "assay": "Inhibition of human Nav1.1 alpha subunit expressed in HEK293 cells co-expressing beta1 subunit at -40 mV holding potential by PatchXpress automated voltage clamp electrophysiology technique", "format": "cell-based"}, "[29]": {"assay": "Half-life in Beagle dog at 1 mg/kg, po", "format": "ADME, organism-based, Canis lupus familiaris", "conditions": "in vivo"}}, "note": "Calls of active or inactive are those of the source. The rule behind the calls is not given here.", "data": [{"smiles": "CC1(COc2cc(F)c(C(=O)NS(=O)(=O)C3CC3)cc2C2CC2)CCC2(CC1)CC2", "values": [{"measurement": "clearance", "setting": "[1]", "result": 0.3, "unit": "mL/min/kg"}, {"measurement": "Activity", "setting": "[2]", "result": "Active"}, {"measurement": "fraction unbound", "setting": "[3]", "result": 0.001}, {"measurement": "IC50", "setting": "[4]", "result": 2.2, "unit": "nM"}, {"measurement": "inhibition", "setting": "[5]", "result": 91, "unit": "%"}, {"measurement": "IC50", "setting": "[6]", "result": 38, "unit": "nM"}, {"measurement": "bioavailability", "setting": "[7]", "result": 68, "unit": "%"}, {"measurement": "concentration at 3.167 h", "setting": "[8]", "result": 79, "unit": "µM"}, {"measurement": "Cp(f)", "setting": "[9]", "result": 0.003, "unit": "µM"}, {"measurement": "IC50", "setting": "[10]", "result": "> 10000", "unit": "nM"}, {"measurement": "IC50", "setting": "[11]", "result": "> 10000", "unit": "nM"}, {"measurement": "Cmax", "setting": "[12]", "result": 13, "unit": "µM"}, {"measurement": "half-life", "setting": "[13]", "result": 9.2, "unit": "h"}, {"measurement": "concentration at 3.167 h", "setting": "[14]", "result": 25, "unit": "µM"}, {"measurement": "fraction unbound", "setting": "[15]", "result": 0.001}, {"measurement": "Cmax", "setting": "[16]", "result": 22, "unit": "µM"}, {"measurement": "bioavailability", "setting": "[17]", "result": 49, "unit": "%"}, {"measurement": "IC50", "setting": "[18]", "result": 6100, "unit": "nM"}, {"measurement": "AUC", "setting": "[19]", "result": 113, "unit": "µM·h"}, {"measurement": "IC50", "setting": "[20]", "result": "> 10000", "unit": "nM"}, {"measurement": "IC50", "setting": "[21]", "result": 0.6, "unit": "nM"}, {"measurement": "IC50", "setting": "[22]", "result": 15, "unit": "nM"}, {"measurement": "Kp at 3.167 h", "setting": "[23]", "result": 0.08}, {"measurement": "inhibition", "setting": "[24]", "result": 80, "unit": "%"}, {"measurement": "Papp A→B", "setting": "[25]", "result": 5.1, "unit": "×10⁻⁶ cm/s"}, {"measurement": "inhibition", "setting": "[26]", "result": 38, "unit": "%"}, {"measurement": "half-life", "setting": "[27]", "result": 5.4, "unit": "h"}, {"measurement": "IC50", "setting": "[28]", "result": 6, "unit": "nM"}, {"measurement": "half-life", "setting": "[29]", "result": 6, "unit": "h"}]}]}
